Results published in ChEMBL document CHEMBL1132778, “Synthesis of derivatives of NK109, 7-OH benzo[c]phenanthridine alkaloid, and evaluation of their cytotoxicities and reduction-resistant properties” (Bioorg Med Chem Lett, 2000).
pIC50: −log10 of the molar value.

System: HeLa
Assay: Evaluated for cytotoxicity against HeLa S3 cells
Assay type: functional, cell-based
Conditions: Homo sapiens

| Compound | pIC50 |
| --- | --- |
| C[n+]1cc2c(O)c(OCc3ccccc3)ccc2c2ccc3cc4c(cc3c21)OCO4 | 4.77 |
| CCC[n+]1cc2c(O)c(OC)ccc2c2ccc3cc4c(cc3c21)OCO4 | 6.40 |
| C=CCOc1ccc2c(c[n+](C)c3c4cc5c(cc4ccc23)OCO5)c1O | 6.15 |
| CCCc1c2c(O)c(OC)ccc2c2ccc3cc4c(cc3c2[n+]1C)OCO4 | 5.54 |
| COc1ccc(-c2c3c(O)c(OC)ccc3c3ccc4cc5c(cc4c3[n+]2C)OCO5)cc1 | 4.80 |
| CC(=O)OCCOc1ccc2c(c[n+](C)c3c4cc5c(cc4ccc23)OCO5)c1O | 6.32 |
| CC[n+]1cc2c(O)c(OC)ccc2c2ccc3cc4c(cc3c21)OCO4 | 6.40 |
| COC(=O)COc1ccc2c(c[n+](C)c3c4cc5c(cc4ccc23)OCO5)c1O | 4.82 |
| C=CC[n+]1cc2c(O)c(OC)ccc2c2ccc3cc4c(cc3c21)OCO4 | 6.12 |
| C[n+]1cc2c(O)c(OCC(=O)O)ccc2c2ccc3cc4c(cc3c21)OCO4 | < 4.62 |
| CCc1c2c(O)c(OC)ccc2c2ccc3cc4c(cc3c2[n+]1C)OCO4 | 4.96 |
| CC(C)Oc1ccc2c(c[n+](C)c3c4cc5c(cc4ccc23)OCO5)c1O | 5.62 |
| COc1ccc2c(c[n+](CC(=O)O)c3c4cc5c(cc4ccc23)OCO5)c1O | < 4.62 |
| COc1ccc2c(c1O)c(C)[n+](C)c1c3cc4c(cc3ccc21)OCO4 | 5.54 |
| COc1ccc2c(c1O)c(-c1ccccc1)[n+](C)c1c3cc4c(cc3ccc21)OCO4 | 4.77 |
| C[n+]1cc2c(O)c(OCCO)ccc2c2ccc3cc4c(cc3c21)OCO4 | 6.28 |
| COc1ccc2c(c1O)c(C1CC1)[n+](C)c1c3cc4c(cc3ccc21)OCO4 | 5.19 |
| C[n+]1cc2c(O)c(OCC(N)=O)ccc2c2ccc3cc4c(cc3c21)OCO4 | 5.72 |
| COc1ccc2c(c[n+](C)c3c4cc5c(cc4ccc23)OCO5)c1O [FAGARIDINE] | 6.49 |
